Experiment [1] addresses Adenosylmethionine-8-amino-7-oxononanoate aminotransferase (Mycobacterium tuberculosis, UniProt P9WQ81). Nature of the experiment: Mycobacterium tuberculosis BioA enzyme inhibitor Measured in Biochemical System Using Plate Reader - 2163-02_Inhibitor_Dose_CherryPick_Activity. Type of experiment: functional, Mycobacterium tuberculosis UT205.
The target of experiment [2] is T1, Orexin/Hypocretin receptor type 1 (Homo sapiens, UniProt O43613).
T1 sequence (O43613 whole entry): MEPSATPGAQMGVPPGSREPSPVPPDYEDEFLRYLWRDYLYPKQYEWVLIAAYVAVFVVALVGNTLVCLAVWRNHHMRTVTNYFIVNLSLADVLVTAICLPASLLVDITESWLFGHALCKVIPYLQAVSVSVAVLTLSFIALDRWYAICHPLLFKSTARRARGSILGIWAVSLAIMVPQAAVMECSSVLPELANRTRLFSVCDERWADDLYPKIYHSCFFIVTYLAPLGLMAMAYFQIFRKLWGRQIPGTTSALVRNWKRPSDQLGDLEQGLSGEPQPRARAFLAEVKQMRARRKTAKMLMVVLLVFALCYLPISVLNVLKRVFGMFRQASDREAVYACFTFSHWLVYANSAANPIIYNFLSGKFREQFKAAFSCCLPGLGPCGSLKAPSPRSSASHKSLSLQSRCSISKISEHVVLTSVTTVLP
Nature of the experiment: Homogeneous Time Resolved Fluorescence (HTRF)-based cell-based high throughput dose response assay for antagonists of the orexin 1 receptor (OX1R; HCRTR1). [Related pubchem assays (depositor defined):AID434989, AID435008, AID463079, AID485270, AID492963, AID492964, AID492965, AID493232, AID504717, AID504718]. It is filed as functional.

In experiment [3] the target is T1, Orexin/Hypocretin receptor type 1. Briefly: Fluorescence-based cell-based high throughput dose response assay for antagonists of the orexin 1 receptor (OX1R; HCRTR1). [Related pubchem assays (depositor defined):AID434989, AID435008, AID463079, AID485270, AID492963, AID492964, AID492965, AID493232, AID504717, AID504718]. It is filed as functional.
Experiment [4] has as its target T2, Orexin receptor type 2 (Homo sapiens, UniProt O43614).
T2 sequence (O43614 whole entry): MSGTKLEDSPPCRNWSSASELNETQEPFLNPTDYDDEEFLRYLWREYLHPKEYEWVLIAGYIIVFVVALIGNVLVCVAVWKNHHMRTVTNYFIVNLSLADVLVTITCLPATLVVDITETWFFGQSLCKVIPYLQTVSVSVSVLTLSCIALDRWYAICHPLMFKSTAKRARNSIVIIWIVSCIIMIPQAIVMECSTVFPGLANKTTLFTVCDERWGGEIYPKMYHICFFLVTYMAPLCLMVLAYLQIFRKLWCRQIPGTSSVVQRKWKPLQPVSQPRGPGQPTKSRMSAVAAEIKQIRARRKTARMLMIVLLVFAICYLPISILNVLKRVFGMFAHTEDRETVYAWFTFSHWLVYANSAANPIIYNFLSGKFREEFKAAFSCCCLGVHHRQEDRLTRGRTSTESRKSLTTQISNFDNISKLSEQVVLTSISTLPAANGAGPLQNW
Nature of the experiment: Counterscreen assay for antagonists of the orexin 1 receptor (OX1R; HCRTR1): Homogeneous Time Resolved Fluorescence (HTRF)-based cell-based dose response assay for antagonists of the orexin 2 receptor (OX2R; HCRTR2), run by assay provider. It is filed as functional.

A short description of experiment [5]: Counterscreen for antagonists of the orexin 1 receptor (OX1R; HCRTR1): Fluorescence-based cell-based high throughput dose response assay to identify antagonists of the parental CHO cell line. [Related pubchem assays (depositor defined):AID434989, AID435008, AID463079, AID485270, AID492963, AID492964, AID492965, AID493232, AID504699, AID504701]. It is filed as functional. (A counterscreen serves to expose hits that act by an unwanted route or on another target.)

Experiment [6] concerns CHO-K1. Nature of the experiment: Counterscreen for antagonists of the orexin 1 receptor (OX1R; HCRTR1): Homogeneous time resolved fluorescence (HTRF)-based cell-based dose response assay to identify antagonists of the parental CHO-K1 cell line. [Related pubchem assays (depositor defined):AID434989, AID435008, AID463079, AID485270, AID492963, AID492964, AID492965, AID493232, AID504699, AID504701]. It is filed as functional. To be noted: Cricetulus griseus.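 Further: potency for inhibition of ATP-stimulated IP1 production as antagonists.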

Experiment [7] concerns the target T2, Orexin receptor type 2. Briefly: Counterscreen assay for antagonists of the orexin 1 receptor (OX1R; HCRTR1): Fluorescence-based cell-based dose response assay for antagonists of the orexin 2 receptor (OX2R; HCRTR2), run by assay provider. Type of experiment: functional.
Experiment [8] has as its target ATP-dependent translocase ABCB1 (Homo sapiens, UniProt P08183). Briefly: inhibition of P-gp mediated JC-1 efflux – Jurkat-DNR cells, flow cytometry, dose response (AID 1689). Type of experiment: functional. For orientation: In flow cytometry, cells or beads pass a laser one at a time.
A short description of experiment [9]: cells. Type of experiment: functional, cell-based.
A short description of experiment [10]: cells. It is filed as functional, cell-based. The source holds these as a separate data set.
Experiment [11] addresses DNA (cytosine-5)-methyltransferase 1 (Homo sapiens, UniProt P26358). Nature of the experiment: inhibition of DNA methylation by DNMT1 – biochemical, fluorescent molecular beacon, confirmation (AID 602386). Type of experiment: functional.
The test system of experiment [12] is Streptococcus. Briefly: GAS UMAA2166 growth inhibition – luminescence, BacTiterGlo, counter-screen for streptokinase expression inhibitor project, dose response (AID 1915).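 Further: potency for reduction of bacterial viability or growth.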 Type of experiment: functional, organism-based.
The target of experiment [13] is Prothrombin (Bos taurus, UniProt P00735). Briefly: thrombin protease inhibitors – biochemical, fluorescence polarization, uHTS hits, dose response (AID 602369). It is filed as functional.
Experiment [14] can be described thus: cells.
For experiment [15], the target named is 26S proteasome non-ATPase regulatory subunit 14 (Homo sapiens, UniProt O00487). Briefly: inhibition of proteasome subunit RPN11 – biochemical, fluorescence polarization, uHTS hits, confirmation (AID 602368). Type of experiment: functional.
26S proteasome non-ATPase regulatory subunit 14, sequence (O00487 whole entry): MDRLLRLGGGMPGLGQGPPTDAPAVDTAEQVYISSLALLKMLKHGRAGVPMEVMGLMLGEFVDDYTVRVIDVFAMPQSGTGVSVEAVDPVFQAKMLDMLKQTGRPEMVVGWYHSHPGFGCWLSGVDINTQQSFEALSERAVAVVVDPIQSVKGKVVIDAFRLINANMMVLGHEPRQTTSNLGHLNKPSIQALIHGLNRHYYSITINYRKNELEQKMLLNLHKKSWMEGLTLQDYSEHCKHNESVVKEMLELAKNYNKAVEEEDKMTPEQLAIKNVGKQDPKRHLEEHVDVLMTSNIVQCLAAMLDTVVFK
In experiment [16] the target is T3, Streptokinase A (Streptococcus pyogenes serotype M1, UniProt P10520).
T3 sequence (P10520 whole entry): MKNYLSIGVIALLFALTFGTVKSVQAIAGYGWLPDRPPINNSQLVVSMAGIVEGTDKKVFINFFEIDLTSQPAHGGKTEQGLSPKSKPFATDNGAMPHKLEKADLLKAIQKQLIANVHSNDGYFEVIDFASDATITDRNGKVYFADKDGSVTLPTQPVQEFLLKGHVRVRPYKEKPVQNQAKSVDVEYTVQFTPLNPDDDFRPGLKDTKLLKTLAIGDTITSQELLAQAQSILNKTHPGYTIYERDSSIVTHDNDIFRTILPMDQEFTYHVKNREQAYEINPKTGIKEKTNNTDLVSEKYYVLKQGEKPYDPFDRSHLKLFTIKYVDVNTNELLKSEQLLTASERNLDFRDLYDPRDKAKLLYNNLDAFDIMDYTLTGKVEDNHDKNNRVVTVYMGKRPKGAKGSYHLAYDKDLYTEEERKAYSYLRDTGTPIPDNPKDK
Nature of the experiment: viability-normalized secreted streptokinase activity reduction – plasminogen activation absorbance, OD405, dose response (AID 1914).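 Further: secreted streptokinase activity via plasminogen activation per viability signal from cell pellet.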 Type of experiment: functional, Streptococcus pyogenes M1 GAS.

The test system of experiment [17] is Streptococcus sp. 'group A'. Briefly: Streptococcus pyogenes SK(-)GAS viability under kanamycin – luminescence, BacTiterGlo, confirmation, counter-screen for streptokinase expression inhibitor project, dose response (AID 1900). Type of experiment: functional, organism-based.
The target of experiment [18] is 72 kDa type IV collagenase (Homo sapiens, UniProt P08253). Briefly: Dose Response validation of uHTS RPN11 inhibitor hits using a MMP-2 Fluorescence assay. It is filed as functional.
72 kDa type IV collagenase, sequence (P08253 whole entry): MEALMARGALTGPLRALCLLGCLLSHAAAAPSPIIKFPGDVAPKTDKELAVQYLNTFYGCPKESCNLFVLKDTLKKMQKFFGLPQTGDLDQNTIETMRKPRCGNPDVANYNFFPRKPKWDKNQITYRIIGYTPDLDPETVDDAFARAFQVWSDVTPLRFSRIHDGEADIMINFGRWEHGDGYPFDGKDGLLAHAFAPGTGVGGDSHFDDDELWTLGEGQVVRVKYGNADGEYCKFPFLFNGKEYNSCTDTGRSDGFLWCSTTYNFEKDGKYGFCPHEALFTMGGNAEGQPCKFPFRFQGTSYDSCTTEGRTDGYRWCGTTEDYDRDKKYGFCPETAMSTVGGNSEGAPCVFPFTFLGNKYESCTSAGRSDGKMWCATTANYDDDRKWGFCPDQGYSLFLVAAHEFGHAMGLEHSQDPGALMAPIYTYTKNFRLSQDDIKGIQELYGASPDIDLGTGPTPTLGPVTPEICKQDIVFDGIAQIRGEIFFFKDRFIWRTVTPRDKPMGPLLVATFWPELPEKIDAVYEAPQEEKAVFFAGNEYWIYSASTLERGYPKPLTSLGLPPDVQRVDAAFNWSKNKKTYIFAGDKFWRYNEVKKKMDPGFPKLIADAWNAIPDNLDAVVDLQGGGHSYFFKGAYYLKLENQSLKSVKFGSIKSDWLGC
Experiment [19] concerns the target Protein disulfide-isomerase (Homo sapiens, UniProt P07237). Nature of the experiment: inhibition of PDI-driven insulin aggregation – biochemical, turbidity, absorbance, cherry-picked samples, dose response (AID 602350). It is filed as functional.
For experiment [20], the target named is T4, Mitochondrial peptide methionine sulfoxide reductase (Bos taurus, UniProt P54149).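 Further: absorbance read-out, biochemical high-throughput dose-response screen for MsrA inhibitors, confirmatory; recombinant bovine MsrA coupled to E. coli TrxB with NADPH and selenocystamine; potency is for inhibitors of MsrA activity on DMSO substrate.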
T4 sequence (P54149 whole entry): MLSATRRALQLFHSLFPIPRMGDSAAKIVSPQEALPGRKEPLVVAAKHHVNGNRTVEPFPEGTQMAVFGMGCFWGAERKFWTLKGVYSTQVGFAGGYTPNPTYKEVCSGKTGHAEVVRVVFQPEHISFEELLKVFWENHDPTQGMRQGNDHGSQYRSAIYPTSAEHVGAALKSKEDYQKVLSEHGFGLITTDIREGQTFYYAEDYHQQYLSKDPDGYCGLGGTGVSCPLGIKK
It is filed as functional.

The source made the active and inactive calls.

Protein disulfide-isomerase, sequence (P07237 whole entry): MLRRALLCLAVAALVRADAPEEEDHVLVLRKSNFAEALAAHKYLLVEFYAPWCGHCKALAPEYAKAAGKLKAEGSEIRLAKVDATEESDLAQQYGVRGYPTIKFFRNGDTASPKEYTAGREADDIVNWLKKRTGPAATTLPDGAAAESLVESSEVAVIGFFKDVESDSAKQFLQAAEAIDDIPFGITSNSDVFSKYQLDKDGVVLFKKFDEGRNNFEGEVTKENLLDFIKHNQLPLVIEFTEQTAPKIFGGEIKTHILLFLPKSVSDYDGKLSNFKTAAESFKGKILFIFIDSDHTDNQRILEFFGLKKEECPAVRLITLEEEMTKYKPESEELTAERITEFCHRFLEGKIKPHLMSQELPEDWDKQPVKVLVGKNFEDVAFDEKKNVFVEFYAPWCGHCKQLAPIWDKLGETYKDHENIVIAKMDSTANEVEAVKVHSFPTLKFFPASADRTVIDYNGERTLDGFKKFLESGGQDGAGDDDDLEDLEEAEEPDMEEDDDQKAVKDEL
DNA (cytosine-5)-methyltransferase 1, sequence (P26358 whole entry): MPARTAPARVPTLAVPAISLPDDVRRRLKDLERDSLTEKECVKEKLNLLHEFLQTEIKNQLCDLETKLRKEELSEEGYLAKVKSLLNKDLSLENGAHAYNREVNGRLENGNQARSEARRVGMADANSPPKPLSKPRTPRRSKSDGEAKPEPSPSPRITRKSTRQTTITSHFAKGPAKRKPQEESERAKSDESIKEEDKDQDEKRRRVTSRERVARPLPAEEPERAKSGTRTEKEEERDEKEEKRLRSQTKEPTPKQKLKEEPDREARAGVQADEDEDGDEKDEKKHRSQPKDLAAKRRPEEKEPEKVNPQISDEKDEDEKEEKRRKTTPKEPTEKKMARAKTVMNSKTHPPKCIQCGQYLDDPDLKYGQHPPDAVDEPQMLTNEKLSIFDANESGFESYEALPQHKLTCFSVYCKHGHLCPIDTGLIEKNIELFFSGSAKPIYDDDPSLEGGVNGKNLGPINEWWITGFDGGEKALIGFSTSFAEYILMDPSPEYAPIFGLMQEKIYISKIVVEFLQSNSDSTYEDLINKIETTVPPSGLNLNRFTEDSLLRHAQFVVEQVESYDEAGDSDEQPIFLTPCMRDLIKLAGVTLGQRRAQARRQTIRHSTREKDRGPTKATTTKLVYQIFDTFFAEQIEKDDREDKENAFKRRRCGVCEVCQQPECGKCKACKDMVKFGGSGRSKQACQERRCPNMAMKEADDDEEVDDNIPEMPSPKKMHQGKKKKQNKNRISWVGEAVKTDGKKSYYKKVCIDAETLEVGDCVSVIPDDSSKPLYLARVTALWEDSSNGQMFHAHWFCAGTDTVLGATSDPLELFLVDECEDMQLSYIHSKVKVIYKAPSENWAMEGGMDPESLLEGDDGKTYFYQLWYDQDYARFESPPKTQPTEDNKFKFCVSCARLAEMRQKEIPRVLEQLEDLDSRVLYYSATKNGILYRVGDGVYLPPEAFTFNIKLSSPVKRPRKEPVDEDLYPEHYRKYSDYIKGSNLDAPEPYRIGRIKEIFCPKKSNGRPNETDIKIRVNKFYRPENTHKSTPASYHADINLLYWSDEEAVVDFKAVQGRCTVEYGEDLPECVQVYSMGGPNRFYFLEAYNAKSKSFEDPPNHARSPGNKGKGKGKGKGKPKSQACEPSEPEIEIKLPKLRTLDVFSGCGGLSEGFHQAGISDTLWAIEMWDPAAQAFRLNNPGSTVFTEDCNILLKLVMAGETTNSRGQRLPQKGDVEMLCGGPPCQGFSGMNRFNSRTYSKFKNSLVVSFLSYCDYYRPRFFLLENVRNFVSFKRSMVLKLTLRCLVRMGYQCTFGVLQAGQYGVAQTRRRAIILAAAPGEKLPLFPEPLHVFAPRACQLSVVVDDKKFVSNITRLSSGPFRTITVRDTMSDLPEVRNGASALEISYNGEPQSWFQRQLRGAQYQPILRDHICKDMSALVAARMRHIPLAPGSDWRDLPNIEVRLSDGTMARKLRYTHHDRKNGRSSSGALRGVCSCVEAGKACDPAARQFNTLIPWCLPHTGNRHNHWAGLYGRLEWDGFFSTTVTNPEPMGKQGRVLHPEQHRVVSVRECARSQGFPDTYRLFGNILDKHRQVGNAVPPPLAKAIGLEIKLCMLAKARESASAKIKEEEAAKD
Adenosylmethionine-8-amino-7-oxononanoate aminotransferase, sequence (P9WQ81 whole entry): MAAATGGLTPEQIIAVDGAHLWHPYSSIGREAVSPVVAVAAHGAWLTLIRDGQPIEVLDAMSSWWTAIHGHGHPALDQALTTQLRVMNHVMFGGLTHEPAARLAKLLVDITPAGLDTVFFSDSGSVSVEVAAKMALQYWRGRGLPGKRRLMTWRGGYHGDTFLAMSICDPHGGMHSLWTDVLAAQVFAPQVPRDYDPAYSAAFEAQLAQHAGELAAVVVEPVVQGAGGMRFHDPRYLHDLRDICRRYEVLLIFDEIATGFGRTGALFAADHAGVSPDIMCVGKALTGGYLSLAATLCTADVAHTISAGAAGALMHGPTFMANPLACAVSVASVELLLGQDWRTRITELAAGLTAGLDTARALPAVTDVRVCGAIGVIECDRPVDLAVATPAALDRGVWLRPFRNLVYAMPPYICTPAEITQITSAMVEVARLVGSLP
ATP-dependent translocase ABCB1, sequence (P08183 whole entry): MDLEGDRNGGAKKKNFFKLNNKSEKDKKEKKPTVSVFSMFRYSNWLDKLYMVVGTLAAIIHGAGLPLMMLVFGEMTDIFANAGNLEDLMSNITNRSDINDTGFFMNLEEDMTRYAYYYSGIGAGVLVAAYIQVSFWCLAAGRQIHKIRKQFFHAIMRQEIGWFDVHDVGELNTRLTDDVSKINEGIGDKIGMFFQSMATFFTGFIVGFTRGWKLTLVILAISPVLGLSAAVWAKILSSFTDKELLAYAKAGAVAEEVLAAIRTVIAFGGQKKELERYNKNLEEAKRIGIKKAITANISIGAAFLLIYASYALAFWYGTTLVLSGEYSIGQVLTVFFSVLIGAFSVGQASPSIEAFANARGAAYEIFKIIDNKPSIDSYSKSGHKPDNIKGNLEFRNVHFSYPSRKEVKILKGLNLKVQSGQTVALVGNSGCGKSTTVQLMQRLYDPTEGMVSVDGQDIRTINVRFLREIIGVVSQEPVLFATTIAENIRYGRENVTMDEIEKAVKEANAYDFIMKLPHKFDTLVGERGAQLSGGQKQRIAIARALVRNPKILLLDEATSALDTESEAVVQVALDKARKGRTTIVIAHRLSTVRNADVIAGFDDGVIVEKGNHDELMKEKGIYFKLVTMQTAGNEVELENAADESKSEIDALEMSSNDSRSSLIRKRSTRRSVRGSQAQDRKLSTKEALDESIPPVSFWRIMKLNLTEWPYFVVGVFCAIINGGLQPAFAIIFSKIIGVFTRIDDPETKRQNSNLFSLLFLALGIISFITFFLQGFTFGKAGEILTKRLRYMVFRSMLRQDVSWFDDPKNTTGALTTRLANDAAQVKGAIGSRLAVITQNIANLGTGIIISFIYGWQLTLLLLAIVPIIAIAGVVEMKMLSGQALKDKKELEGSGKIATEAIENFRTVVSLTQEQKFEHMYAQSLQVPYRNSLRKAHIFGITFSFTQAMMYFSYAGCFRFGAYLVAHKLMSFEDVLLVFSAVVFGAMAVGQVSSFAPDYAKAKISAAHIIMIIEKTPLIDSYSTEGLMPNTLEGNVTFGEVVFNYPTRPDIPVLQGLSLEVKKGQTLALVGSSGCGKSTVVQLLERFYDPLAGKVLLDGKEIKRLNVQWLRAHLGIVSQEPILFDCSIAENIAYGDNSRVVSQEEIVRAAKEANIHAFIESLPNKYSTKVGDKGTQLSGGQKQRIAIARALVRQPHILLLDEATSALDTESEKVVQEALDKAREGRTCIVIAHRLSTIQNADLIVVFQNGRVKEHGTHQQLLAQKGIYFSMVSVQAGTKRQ

As to `CC(=O)Nc1ccc2[nH]c(-c3cccnc3)nc2c1`, in experiment [1], the AC50 – broadly, the midpoint of the concentration-response curve, whichever way the signal moves – is 4.1 µM (active).

For the compound `Cc1ccc(-c2csc3nnc(SCC(=O)Nc4nsc(-c5ccccc5)n4)n23)cc1`, the IC50 (as a rule, the concentration that gives 50% inhibition) in [2] was 2.53 µM (active); in [3] it was 5.64 µM (active); in experiment [4] it was 177 nM (active); in experiment [5], > 49.7 µM (inactive); in experiment [6] it was > 66.2 µM (inactive); in experiment [7], > 88.8 µM (inactive).

For `COc1ccc(/C=N/NC(=O)c2cccnc2)cc1CN1CCN(c2ccc(F)cc2)CC1`, the figures for the EC50 in experiment [8], in [9] and in experiment [10] were 1.01 µM (active), > 350 µM (not active) and > 350 µM (not active), respectively.

Take `CCOC(=O)C1=C(C)N=c2s/c(=C/c3ccc(OCC(=O)O)c(OC)c3)c(=O)n2C1c1ccc(Cl)cc1` (stereo not given): the 50% inhibitory concentration (IC50) in experiment [11] is 10.2 µM (active); in experiment [13], 25.1 µM (active); in [14] it was 45.5 µM (active); in [15] it was 11.7 µM (active); in [18], > 100 µM (inactive). The EC50 (usually the concentration at which the effect is half-maximal) in experiment [12] is 13.2 µM (active); in experiment [16], > 150 µM (not active); in [17], 9.79 µM (active).

In the case of `COc1ccccc1N1CCN(C(=O)C(=O)N/N=C/c2cccc(O)c2)CC1`, in experiment [19], the AC50 was 19.5 µM (active).

With `O=C(O)COc1ccc(/C=N/NC(=O)/C(=C/C=C/c2ccccc2)NC(=O)c2ccccc2)cc1`, the IC50 in experiment [20] is 103 µM (inactive).

(Values after ChEMBL document CHEMBL1201862, “PubChem BioAssay data set” (2004).)
